From PubChem BioAssay (NCI)
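Growth conditions: 96-well plates. Treatment: test compound, 48 hours, 5 concentrations. Analysis: linear interpolation between bracketing concentrations; unreached endpoints set to highest concentration. TGI marks complete inhibition of growth.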

How the values were obtained:
Assay in all cases: growth of human tumour cells (NCI), 48 h
786-0 renal = test system: 786-0 renal
OVCAR-8 ovarian = test system: OVCAR-8 ovarian
SF-295 CNS = test system: SF-295 CNS
HT29 colon = test system: HT29 colon
TK-10 renal = test system: TK-10 renal
CAKI-1 renal = test system: CAKI-1 renal
A498 renal = test system: A498 renal
PC-3 prostate = test system: PC-3 prostate
A549 NSCLC = test system: A549 NSCLC
SR leukemia = test system: SR leukemia
SK-MEL-2 melanoma = test system: SK-MEL-2 melanoma
HCT-15 colon = test system: HCT-15 colon
RXF 393 renal = test system: RXF 393 renal
COLO 205 colon = test system: COLO 205 colon
NCI/ADR-RES ovarian = test system: NCI/ADR-RES ovarian
HCT-116 colon = test system: HCT-116 colon
MDA-MB-231 breast = test system: MDA-MB-231 breast
MOLT-4 leukemia = test system: MOLT-4 leukemia
BT-549 breast = test system: BT-549 breast
NCI-H522 lung = test system: NCI-H522 lung
UACC-62 melanoma = test system: UACC-62 melanoma
EKVX NSCLC = test system: EKVX NSCLC
OVCAR-4 ovarian = test system: OVCAR-4 ovarian
HOP-92 NSCLC = test system: HOP-92 NSCLC
MDA-N = test system: MDA-N
UO-31 renal = test system: UO-31 renal
MALME-3M melanoma = test system: MALME-3M melanoma
NCI-H23 lung = test system: NCI-H23 lung
RPMI-8226 leukemia = test system: RPMI-8226 leukemia
SNB-19 CNS = test system: SNB-19 CNS
SN12C renal = test system: SN12C renal
SF-539 CNS = test system: SF-539 CNS
KM12 colon = test system: KM12 colon
SW-620 colon = test system: SW-620 colon
SF-268 CNS = test system: SF-268 CNS
OVCAR-5 ovarian = test system: OVCAR-5 ovarian
NCI-H460 lung = test system: NCI-H460 lung
NCI-H226 lung = test system: NCI-H226 lung
HS 578T breast = test system: HS 578T breast
HOP-62 NSCLC = test system: HOP-62 NSCLC
M14 melanoma = test system: M14 melanoma
DU-145 prostate = test system: DU-145 prostate
SK-OV-3 ovarian = test system: SK-OV-3 ovarian
MDA-MB-435 = test system: MDA-MB-435
LOX IMVI melanoma = test system: LOX IMVI melanoma
U251 CNS = test system: U251 CNS
T-47D breast = test system: T-47D breast
IGROV1 ovarian = test system: IGROV1 ovarian
HL-60(TB) leukemia = test system: HL-60(TB) leukemia
CCRF-CEM leukemia = test system: CCRF-CEM leukemia
SK-MEL-5 melanoma = test system: SK-MEL-5 melanoma
ACHN renal = test system: ACHN renal
OVCAR-3 ovarian = test system: OVCAR-3 ovarian
UACC-257 melanoma = test system: UACC-257 melanoma
SK-MEL-28 melanoma = test system: SK-MEL-28 melanoma
K-562 leukemia = test system: K-562 leukemia
SNB-75 CNS = test system: SNB-75 CNS
MCF7 breast = test system: MCF7 breast
HCC-2998 colon = test system: HCC-2998 colon

Measured: TGI

C[C@H](NC1=CC(=O)C(N[C@@H](C)[C@H](O)c2ccccc2)=CC1=O)[C@H](O)c1ccccc1
63.7 µM: HT29 colon
not listed: SNB-75 CNS | MCF7 breast | HCC-2998 colon
> 100 µM: all other assays above

COc1ccc2nc3cc(Cl)ccc3c(Nc3ccc(O)c(CN4CCN(C)CC4)c3)c2c1
3.85 µM: KM12 colon
3.71 µM: K-562 leukemia
4.07 µM: HOP-62 NSCLC
4.65 µM: HS 578T breast
3.07 µM: UACC-62 melanoma
5.96 µM: SNB-19 CNS
3.53 µM: M14 melanoma
3.11 µM: SK-MEL-5 melanoma
3.47 µM: A549 NSCLC
3.21 µM: MDA-N | MALME-3M melanoma
3.12 µM: MCF7 breast
3.45 µM: UACC-257 melanoma
5.34 µM: OVCAR-5 ovarian
3.74 µM: HCT-116 colon
3.79 µM: TK-10 renal
3.98 µM: CAKI-1 renal
8.68 µM: A498 renal
6.42 µM: SF-268 CNS
3.81 µM: SF-295 CNS
3.19 µM: OVCAR-4 ovarian
38.9 µM: NCI-H226 lung
38.6 µM: BT-549 breast
3.73 µM: DU-145 prostate
4.85 µM: RPMI-8226 leukemia
3.54 µM: HT29 colon
3.57 µM: HL-60(TB) leukemia
2.42 µM: HCC-2998 colon
5.1 µM: SW-620 colon
3 µM: 786-0 renal | MDA-MB-435 | ACHN renal
3.15 µM: U251 CNS
3.91 µM: SNB-75 CNS
4.94 µM: MOLT-4 leukemia
3.56 µM: OVCAR-8 ovarian
3.52 µM: EKVX NSCLC
3.04 µM: COLO 205 colon
2.99 µM: MDA-MB-231 breast
11.1 µM: SK-OV-3 ovarian
3.93 µM: SN12C renal
3.29 µM: SK-MEL-2 melanoma
5.68 µM: HCT-15 colon
3.3 µM: IGROV1 ovarian
4.48 µM: T-47D breast
3.76 µM: OVCAR-3 ovarian
3.62 µM: SK-MEL-28 melanoma
3.33 µM: NCI-H522 lung
3.22 µM: PC-3 prostate | RXF 393 renal | SF-539 CNS | NCI-H460 lung
3.31 µM: UO-31 renal

NNC(=O)c1n[nH]n(N)c1=S
not listed: SR leukemia | HOP-92 NSCLC | SNB-19 CNS | HL-60(TB) leukemia | MCF7 breast
> 100 µM: all other assays above
